# Test results reported in patent publication US5814627A, “3, 5-disubstituted and 3, 4, 5-trisubstituted 2-isoxazolines and isoxazoles, process for their preparation and their use as pharmaceuticals” (Hoechst Aktienegesellschaft, priority 1994, dated 1998).
# How the values were obtained:
# [1] = test system: TNFα release from mononuclear cells; assay: Test 4: cytokine release from LPS-stimulated mononuclear cells, TNFα; assay type: cell-based; conditions: Homo sapiens, read-out: Test 4 residual activity (TNFα release), percent of control
# Procedure: (§1) Test 4. Stimulation of the cytokine release
# (§2) Isolation of mononuclear cells from human blood
# (§3) 10 ml of human blood, stabilized with 1 ml of 3.8% sodium citrate solution, were diluted with 10 ml of PM16 (Serva, Heidelberg) and underlaid with 15 ml of Lymphoprep (Dr. Molter GmbH, Heidelberg). The samples were centrifuged, at room temperature for 40 minutes, at 400×g (1600 rpm, Minifuge 2, Heraeus, Osterode). The mononuclear cells are visible as a white ring at the Lymphoprep/plasma interface. This ring was carefully removed with a syringe, diluted with an equal volume of PM16, and centrifuged for 10 minutes at 400×g. The sediment was washed with approximately 10 ml of RPMI1640 (+300 mg/l L-glutamine, Gibco, Eggenstein) (Wallis, 1986). After the cells had been resuspended in approximately 1 ml of RPMI1640 (+300 mg/l L-glutamine+25 mM HEPES+100 μg/ml streptomycin+100 μg/ml penicillin), the cell density was determined using a Coulter Counter JT (Coulter Diagnostics) and adjusted to 5*10^6 /ml. Typically, the cells are composed of 90% lymphocytes and 10% monocytes.
# (§4) 230 μl of mononuclear cells were incubated, at 37° C.; 5% CO2 for 20-22 hours (5 hours in the case of IL-6), with 10 μl of test substance (10 μM in DMSO/water, 1/10) and 10 μl of lipopolysaccharide (LPS; 500 μg dissolved in 1 ml of DMSO and diluted 1/10 with water prior to beginning the test; from Salmonella abortus equi, Sigma, Deisenhofen). The samples were cooled down to 0° C. in an ice bath and centrifuged in a Sigma centrifuge (2 minutes; 2000 rpm). Aliquots of the supernatant are measured with an ELISA (Biermann, Bad Nauheim). The abbreviation IL stands for interleukin and TNF for tumor necrosis factor alpha.
# (§5) The values in the table show the concentration of the test substance which was employed in μM and, besides this, the residual activity measured in percent based on the control, which was set to be 100%. The interleukin is additionally indicated in test 4.
# [2] = test system: IL-6 release from mononuclear cells; assay: Test 4: cytokine release from LPS-stimulated mononuclear cells, IL-6; assay type: cell-based; conditions: Homo sapiens, 5 hours incubation, read-out: Test 4 residual activity (IL-6 release), percent of control
# Procedure: as §1, §2
# as §3, with “The sediment was washed with approximately 10 ml of RPMI1640 (+300 mg/l L-glutamine, Gibco, Eggenstein) (Wallis, 1986).” left out, “Typically, the cells are composed of 90% lymphocytes and 10% monocytes.” left out
# as §4, with “The samples were cooled down to 0° C. in an ice bath and centrifuged in a Sigma centrifuge (2 minutes; 2000 rpm).” left out, “The abbreviation IL stands for interleukin and TNF for tumor necrosis factor alpha.” left out
# [3] = test system: PAF-induced asthma attack; assay: Test 7: antiasthmatic effect, PAF-induced asthma attack; assay type: in vivo; conditions: Cavia porcellus; i.d., 15 minutes before PAF; guinea pig
# How it was run: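 Anesthetized guinea pigs given PAF through a jugular vein cannula; test compounds dosed i.v. through the same cannula 5 min before PAF, or intraduodenally via surgical cannula 15 min before. Bronchial width recorded by overflow pneumonogram before and after dosing; ED50 in mg/kg i.d. against the PAF-induced attack.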
# [4] = test system: IL-1α release from mononuclear cells; assay: Test 4: cytokine release from LPS-stimulated mononuclear cells, IL-1α; assay type: cell-based; conditions: Homo sapiens, 10 μM, read-out: Test 4 residual activity (IL-1α release), percent of control
# Procedure: as §1, §2, §3
# as §4, with “([…])” for “(10 μM in DMSO/water, 1/10)”
# as §5
# [5] = test system: polymorphonuclear leucocytes (PMNL); assay: Test 2: Release of oxygen radicals from human PMNL; assay type: cell-based; conditions: read-out: Test 2 residual activity (release of oxygen radicals), percent of control
# Procedure: Isolation of polymorphonuclear leucocytes (PMNL) from human peripheral blood for carrying out tests 1 and 2 10 ml of human blood were diluted with 10 ml of HBSS (Serva) and underlaid with 15 ml of Lymphoprep (Dr. Molter GmbH, Heidelberg). The sample was then centrifuged for 25 minutes at 400×g (1600 revolutions per minute, Minifuge 2, Heraeus, Osterode). […] A white ring, composed of mononuclear cells, is located between these two phases. The lowermost phase is composed of erythrocytes which are covered with a white layer of PMNL. The uppermost phase, and also the Lymphoprep and the white ring, were carefully removed using a syringe. The remaining sediment was carefully resuspended in 15 ml of 3% dextran in PM16 (mw: 485,000, Sigma, Deisenhofen). The suspension was then left to stand at room temperature for one hour. During this time, the erythrocytes sedimented while the PMNL remained in the supernatant. The supernatant was removed, diluted with an approximately equal volume of PM16, and centrifuged for 15 minutes at 400×g. Should the PMNL sediment be heavily contaminated with erythrocytes, it is necessary to carry out a hypotonic lysis. To do this, the sediment was resuspended in 750 μl of water. After exactly 15 seconds, the suspension was diluted with approximately 7 ml of PM16 and centrifuged for 10 minutes at 400×g. If necessary, this lysis was repeated once more. Otherwise, the PMNL sediment was resuspended in a suitable medium.
# The PMNL were resuspended (5·10^6 cells/ml) in Dulbecco's PBS, supplemented with 7.5 mM glucose. Care must be taken to ensure that the PMNL are free of erythrocytes. 100 μl of PMNL, 700 μl of PBS+glucose and 100 μl of cytochrome C (9.38 mg/ml of PBS+glucose) were mixed in a semi-microcuvette. 100 μl of PMNL, 500 μl of PBS+glucose, 100 μl of cytochalasin B ([…]), 100 μl of TNF (0.05 ng) and 100 μl of cytochrome C (9.38 mg/ml of PBS+glucose) were mixed for the fMLP-induced release of oxygen. Measurements were made in a double-beam photometer meter (Perkin-Elmer 552 S) at a wavelength of 550 nm. The measurement range is 0-1 extinction units. The cuvettes were temperature-equilibrated to 37° C. The reference cuvette additionally contained 10 μl of SOD (6 mg of SOD/ml of PBS+glucose). Following a preincubation of 5 minutes, the reaction is started with 100 μl of inducer. The reaction is started with 1·10^-7 mol of fMLP.
# as §5
# [6] = test system: IL-1β release from mononuclear cells; assay: Test 4: cytokine release from LPS-stimulated mononuclear cells, IL-1β; assay type: cell-based; conditions: Homo sapiens, 10 μM, read-out: Test 4 residual activity (IL-1β release), percent of control
# Procedure: as §1, §2, §3, §4, §5
SMILES,activity at 10 µM [1] [%],ED50 [3] [mg/kg],activity at 10 µM [4] [%],activity at 5 µM [5] [%],activity at 50 µM [5] [%],further results
CC(C)(C)c1cc(C2=NOC(c3ccccn3)C2)cc(C(C)(C)C)c1O (centres unmarked) [Example 9],63,~50,,,,activity at 10 µM ([2]; 10 μM): 93%
CC(O)c1cc(-c2cc(C(C)(C)C)c(O)c(C(C)(C)C)c2)no1 (centres unmarked) [Example 28],,,93,,,activity at 10 µM ([5]; 10 μM): 60%; activity at 25 µM ([5]; 25 μM): 8%
"CCOC(=O)CNC(=O)OCCCc1cc(-c2cc(C(C)(C)C)c(O)c(C(C)(C)C)c2)no1 [Example 41, N-(3-(4-Hydroxy-3,5-di-tert-butylphenyl)isoxazol-5-ylpropoxycarbonyl)glycine ethyl ester]",89,,,75,36,
"CC(C)(C)c1cc(-c2cc(CNS(=O)(=O)C(F)(F)F)on2)cc(C(C)(C)C)c1O [Example 49, N-(3-(4-Hydroxy-3,5-di-tert-butylphenyl)isoxazol-5-ylmethyl)trifluoromethanesulfonamide]",91,~50,,80,12,activity at 1 µM ([2]; 1 μM): 91%
"CC(C)(C)c1cc(C2CC(CCC(=O)O)=NO2)cc(C(C)(C)C)c1O (centres unmarked) [Example 63, 5-(4-Hydroxy-3,5-di-tert-butylphenyl)-2-isoxazolin-3-ylpropionic acid]",,,75,,79,activity at 10 µM [6]: 77%
